Consider five compounds from patent US5780653A, “Nitrophenyl, 10-deacetylated substituted taxol derivatives as dual functional cytotoxic/radiosensitizers” (Vivorx Pharmaceuticals, Inc., priority 1995, dated 1998).

Data set [1] has as its system breast adenocarcinoma cell line MCF-7. In words: In vitro cytotoxicity of paclitaxel derivatives (macroscopic colony formation). The class given is cell-based. How it is done:
Taxol derivatives were assayed for their cytotoxic activities on tumor cell lines in vitro. The breast adenocarcinoma cell line MCF-7 was chosen as a model for the cytotoxicity assay. The cell line was maintained in RPMI 1640 medium supplemented with 10% fetal bovine serum. For the cell survival experiments, a number of 100 mm petri dishes were plated with 5×10^5 cells. Exponentially growing cells were exposed to paclitaxel or paclitaxel derivatives at various concentrations 24 hours later. After exposure to paclitaxel and derivatives for various times, the cells were rinsed, trypsinized and washed with medium. The cells were resuspended as single cell suspensions, counted with a particle counter, plated and incubated for macroscopic colony formation. Following a one to two week incubation, the colonies were fixed with methanol/acetic acid, stained with crystal violet and colonies with more than 50 cells counted. […] The survival was reported as the fraction of cells surviving after exposure to paclitaxel or derivatives thereof. As an example, the cytotoxicity of the derivative synthesized in Example 9, i.e., 3'-Desphenyl-3'-(4-nitrophenyl)-N-debenzoyl-N-(t-butoxycarbonyl)-10-deacetyltaxol, is reported herein.

Data set [2] relates to tubulin. In words: In vitro microtubule assembly of paclitaxel derivatives (turbidity, absorbance at 350 nm). The class given is biochemical. The settings on record: for absorbance (at 350 nm), tubulin polymerization at 10° C. / absorbance (at 350 nm), tubulin polymerization at 37° C.: 10 μM tubulin, 10 μM taxol or derivative; for absorbance (at 350 nm), tubulin polymerization at 10° C.: pH 6.8, 10° C.; for absorbance (at 350 nm), tubulin polymerization at 37° C.: pH 6.8, 37° C. From the text: Paclitaxel inhibits cell replication in the mitotic phase of the cell cycle by promoting polymerization and stabilization of microtubules. Microtubules are polymers of tubulin in dynamic equilibrium with tubulin heterodimers that are composed of alpha and beta protein subunits. Unlike other antimicrotubule agents, such as the vinca alkaloids (that induce microtubule disassembly), paclitaxel shifts the equilibrium towards microtubule assembly. Paclitaxel-induced microtubules are excessively stable, thereby inhibiting the dynamic reorganization of the microtubule network. The cytotoxic properties of paclitaxel are caused by its unique disruptive effects on microtubules. Thus the activity of taxol or taxol analogs and derivatives may be assessed in vitro by their ability to polymerize tubulin into microtubules (Chaudhary et al. Journal of the American Chemical Society 116:4097-4098 (1994). The polymerization of tubulin is accompanied by a concomitant increase in solution turbidity associated with the formation of microtubules. This increase in turbidity can be assayed spectrophotometrically.
Thus, 10 μM tubulin was dissolved in 0.1M MES buffer containing 100 μM GTP and 0.5 mM MgCl2 with a final pH of 6.8. 10 μM tubulin was added to the buffer. 10 μM of taxol (or taxol derivatives) was added to the buffer at 0° C. and the absorbance of the sample measured at 350 nm as the sample temperature increased rapidly to 37° C. with the aid of a circulating water bath connected to the sample chamber of the spectrophotometer. The maximum absorbance of the sample was measured and compared to that of taxol as a control to determine any change in activity of the paclitaxel derivatives.

The subject of data set [3] is microtubule. The settings on record: compared with paclitaxel; cited from earlier work.
The conditions of data set [4]: compared with paclitaxel; cited from earlier work.
The test system of data set [5] is rodent tumors. The settings on record: some rodent tumors; cited from earlier work.
The test system of data set [6] is cultured mammalian cells. The following applies: cited from earlier work.
For data set [7], the system named is central nervous system. The following applies: large-scale clinical trials; cited from earlier work.
Data set [8] deals with three human ovarian cancer cell lines. The settings on record: cited from earlier work.
Data set [9] deals with cervical carcinoma cell lines. The settings on record: cited from earlier work.
The conditions of data set [10]: cited from earlier work.
The conditions of data set [11]: intravenous infusion every 2-3 weeks, patients; cited from earlier work.
The test system of data set [12] is human breast and lung cell lines. The following applies: cited from earlier work.
Data set [13] relates to grade III human astrocytoma cell line, G18. The settings on record: paclitaxel pretreatment and gamma irradiation; cited from earlier work.
The test system of data set [14] is HL-60 human leukemic cell line. The following applies: cited from earlier work.

As to “3'-Desphenyl-3'-(4-nitrophenyl)-N-debenzoyl-N-(isopropoxycarbonyl)-10-deacetyltaxol [Example 9]”, in [1] (10 nM, 24 hours), the “surviving fraction of MCF-7 cells” value is given as 2×10^-3. In addition, the “increase in cytotoxicity over unmodified taxol” value in data set [1] (MCF-7, 10 nM, 24 hours) came to 30 fold.
Regarding `CC(=O)O[C@@]12CO[C@@H]1C[C@H](O)[C@@]1(C)C(=O)[C@H](O)C3=C(C)[C@@H](OC(=O)C(O)C(NC(=O)OC(C)(C)C)c4ccc([N+](=O)[O-])o4)C[C@@](O)([C@@H](OC(=O)c4ccccc4)[C@H]21)C3(C)C` (some centres unmarked) [Example 6], in [2], the “absorbance (at 350 nm), tubulin polymerization at 10° C.” value worked out at 0.37 and the “absorbance (at 350 nm), tubulin polymerization at 37° C.” value was found to be 0.71. In addition, in data set [2] (37° C.), the “tubulin polymerization activity relative to taxol (ratio of absorbances)” value is reported as 2.4 times that of taxol. Moreover, in [2] (both at low temperature and at physiological temperatures), the “activity in tubulin assembly compared with unmodified taxol” value was “substantially more active in tubulin assembly than unmodified taxol”.
As for `CC(=O)O[C@@]12CO[C@@H]1C[C@H](O)[C@@]1(C)C(=O)[C@H](O)C3=C(C)[C@@H](OC(=O)[C@H](O)[C@@H](NC(=O)OC(C)(C)C)c4ccccc4)C[C@@](O)([C@@H](OC(=O)c4ccccc4)[C@H]21)C3(C)C` [docetaxel], the “microtubule assembly activity” value in data set [3] is “more active than paclitaxel”. For the same compound, in data set [4], the “cytotoxicity” value is “more active than paclitaxel”.
Consider `COCC(O)Cn1ccnc1[N+](=O)[O-]` (centres unmarked) [misonidazole], for which, in data set [5], the “hypoxic-cell sensitization, rodent tumors” value is “excellent hypoxic-cell sensitizer”. Further, the “hypoxic-cell sensitization, cultured mammalian cells” value in [6] is reported as “excellent hypoxic-cell sensitizer”. In [7], the “toxicity to the central nervous system” value is reported as “toxic to the central nervous system”.
With `CC(=O)O[C@H]1C(=O)[C@@]2(C)[C@H]([C@H](OC(=O)c3ccccc3)[C@]3(O)C[C@H](OC(=O)[C@H](O)[C@@H](NC(=O)c4ccccc4)c4ccccc4)C(C)=C1C3(C)C)[C@]1(OC(C)=O)CO[C@@H]1C[C@@H]2O` [paclitaxel], in [8], the “radiosensitization, human ovarian cancer cell lines” value is reported as “radiosensitization”. Besides, the viability at 0.01 µM in data set [1] (Homo sapiens, MCF7, 24 h, read-out: surviving fraction of MCF-7 cells) worked out at 6%. Further, the “enhancement in radiosensitization, cervical carcinoma” value in data set [9] was “have not observed an enhancement in radiosensitization”. In [2], the “absorbance (at 350 nm), tubulin polymerization at 10° C.” value is recorded as 0.0 and the “absorbance (at 350 nm), tubulin polymerization at 37° C.” value was determined as 0.295. The “polymerization of tubulin at 10° C.” value in data set [2] (taxol (10 μM), 10° C.) is “would not polymerize tubulin”. Besides, the “polymerization of tubulin at 37° C.” value in data set [2] (taxol (10 μM), 37° C.) was “would promote polymerization”. Moreover, in data set [10], the “in vivo radiopotentiation” value is “potent in vivo radiopotentiating agent”. Besides, the serum half-life entry in data set [11] is on record as “up to 19 h”. Further, the “enhancement in radiosensitization, human breast and lung” value in data set [12] is “have not observed an enhancement in radiosensitization”. For the same compound, the “enhancement of radiosensitivity, G18” value in data set [13] was “significant enhancement of radiosensitivity”. Moreover, the “radiosensitization, HL-60” value in data set [14] is given as “radiosensitization”.
